Reference: patent publication US20090137572A1, “2-substituted-4-heteroaryl-pyrimidines useful for the treatment of proliferative disorders” (priority 2004, published 2009)

Key:
[1] = target: protein kinases (panel of Table 4) (Homo sapiens, UniProt P12931); test: Kinase selectivity profile, kinase inhibition IC50 (Table 4), ATP 100 μM; format: biochemical; conditions: kinase Src
ERK8 = ERK8 (Homo sapiens, UniProt Q8TD08); test: Kinase selectivity profile, ERK8; format: biochemical; conditions: 5 μM test compound, compared to control; ATP 5 μM
Experimental: (§1) The kinase selectivity profiles of selected example compounds were determined, essentially as described (Bain, J.; McLauchlan, H.; Elliott, M.; Cohen, P. Biochemical Journal, 2003, 371, 199.); the results are shown in Tables 3 & 4. For the assays shown in Table 3, the kinases were assayed at the following ATP concentrations: SAPK4, PKBΔph, GSK3b, SAPK3, CK2, MKK1, PIM2, IKKB, ERK8, and PRK2 at 5 μM; JNK, PRAK, ROCK-II, SAPK2b, CDK2, CHK1, MSK1, CSK, P70S6K, PKA, CK1, MAPKAP-K2, SGK, PKCa, PDK1, NEK 7, and MAPKAP-K3 at 20 μM; SAPK2a, LCK, AMPK, MAPK2, DYRK1a, MAPKAP-K1a, NEK-6, NEK2a, PBK, CAMK-1, SRPK-1, JNK3, MNK2, RSK2, MNK1, PKBB, and SmMLCK at 50 μM. For the assays in Table 4 the ATP concentration was 100 μM throughout.

MAPKAP-K1a = MAPKAP-K1a (Homo sapiens, UniProt Q15418); test: Kinase selectivity profile, MAPKAP-K1a; format: biochemical; conditions: 5 μM test compound, compared to control; ATP 50 μM
Experimental: as §1

SRPK1 = SRPK1 (Homo sapiens, UniProt Q96SB4); test: Kinase selectivity profile, SRPK1; format: biochemical; conditions: 5 μM test compound, compared to control; ATP 50 μM
Experimental: as §1

SGK = SGK (Homo sapiens, UniProt O00141); test: Kinase selectivity profile, SGK; format: biochemical; conditions: 5 μM test compound, compared to control; ATP 20 μM
Experimental: as §1

PKBb = PKBb (Homo sapiens, UniProt P31751); test: Kinase selectivity profile, PKBb; format: biochemical; conditions: 5 μM test compound, compared to control; ATP 50 μM
Experimental: as §1

MAPKAP-K2 = MAPKAP-K2 (Homo sapiens, UniProt P49137); test: Kinase selectivity profile, MAPKAP-K2; format: biochemical; conditions: 5 μM test compound, compared to control; ATP 20 μM
Experimental: as §1

JNK/SAPK1c = JNK/SAPK1c (Homo sapiens, UniProt P45983); test: Kinase selectivity profile, JNK/SAPK1c; format: biochemical; conditions: 5 μM test compound, compared to control; ATP 20 μM
Experimental: as §1

PHK = test: Kinase selectivity profile, PHK; format: biochemical; conditions: 5 μM test compound, compared to control
Experimental: as §1

NEK6 = NEK6 (Homo sapiens, UniProt Q9HC98); test: Kinase selectivity profile, NEK6; format: biochemical; conditions: 5 μM test compound, compared to control; ATP 50 μM
Experimental: as §1

MAPKAP-K3 = MAPKAP-K3 (Homo sapiens, UniProt Q16644); test: Kinase selectivity profile, MAPKAP-K3; format: biochemical; conditions: 5 μM test compound, compared to control; ATP 20 μM
Experimental: as §1

CDK2-cyclin A = CDK2-cyclin A (Homo sapiens, UniProt P24941); test: Kinase selectivity profile, CDK2/cyclin A; format: biochemical; conditions: 5 μM test compound, compared to control; ATP 20 μM
Experimental: as §1

CAMK-1 = CAMK-1 (Homo sapiens, UniProt Q14012); test: Kinase selectivity profile, CAMK-1; format: biochemical; conditions: 5 μM test compound, compared to control; ATP 50 μM
Experimental: as §1

Lck = Lck (Homo sapiens, UniProt P06239); test: Kinase selectivity profile, Lck; format: biochemical; conditions: 5 μM test compound, compared to control; ATP 50 μM
Experimental: as §1

SAPK3/p38g = SAPK3/p38g (Homo sapiens, UniProt P53778); test: Kinase selectivity profile, SAPK3/p38g; format: biochemical; conditions: 5 μM test compound, compared to control; ATP 5 μM
Experimental: as §1

CK2 = test: Kinase selectivity profile, CK2; format: biochemical; conditions: 5 μM test compound, compared to control; ATP 5 μM
Experimental: as §1

MSK1 = MSK1 (Homo sapiens, UniProt O75582); test: Kinase selectivity profile, MSK1; format: biochemical; conditions: 5 μM test compound, compared to control; ATP 20 μM
Experimental: as §1

p70 S6K = p70 S6K (Homo sapiens, UniProt P23443); test: Kinase selectivity profile, p70 S6K; format: biochemical; conditions: 5 μM test compound, compared to control; ATP 20 μM
Experimental: as §1

GSK3b = GSK3b (Homo sapiens, UniProt P49841); test: Kinase selectivity profile, GSK3b; format: biochemical; conditions: 5 μM test compound, compared to control; ATP 5 μM
Experimental: as §1

DYRK1a = DYRK1a (Homo sapiens, UniProt Q13627); test: Kinase selectivity profile, DYRK1a; format: biochemical; conditions: 5 μM test compound, compared to control; ATP 50 μM
Experimental: as §1

Aurora B = Aurora B (Homo sapiens, UniProt Q96GD4); test: Kinase selectivity profile, Aurora B; format: biochemical; conditions: 5 μM test compound, compared to control
Experimental: as §1

MNK1 = MNK1 (Homo sapiens, UniProt Q9BUB5); test: Kinase selectivity profile, MNK1; format: biochemical; conditions: 5 μM test compound, compared to control; ATP 50 μM
Experimental: as §1

PRK2 = PRK2 (Homo sapiens, UniProt Q16513); test: Kinase selectivity profile, PRK2; format: biochemical; conditions: 5 μM test compound, compared to control; ATP 5 μM
Experimental: as §1

JNK3 = JNK3 (Homo sapiens, UniProt P53779); test: Kinase selectivity profile, JNK3; format: biochemical; conditions: 5 μM test compound, compared to control; ATP 50 μM
Experimental: as §1

SAPK2b/p38β2 = SAPK2b/p38β2 (Homo sapiens, UniProt Q15759); test: Kinase selectivity profile, SAPK2b/p38β2; format: biochemical; conditions: 5 μM test compound, compared to control; ATP 20 μM
Experimental: as §1

NEK2a = NEK2a (Homo sapiens, UniProt P51955); test: Kinase selectivity profile, NEK2a; format: biochemical; conditions: 5 μM test compound, compared to control; ATP 50 μM
Experimental: as §1

PIM2 = PIM2 (Homo sapiens, UniProt Q9P1W9); test: Kinase selectivity profile, PIM2; format: biochemical; conditions: 5 μM test compound, compared to control; ATP 5 μM
Experimental: as §1

MNK2 = MNK2 (Homo sapiens, UniProt Q9HBH9); test: Kinase selectivity profile, MNK2; format: biochemical; conditions: 5 μM test compound, compared to control; ATP 50 μM
Experimental: as §1

SAPK2b/p38β2, sequence (Q15759 whole entry): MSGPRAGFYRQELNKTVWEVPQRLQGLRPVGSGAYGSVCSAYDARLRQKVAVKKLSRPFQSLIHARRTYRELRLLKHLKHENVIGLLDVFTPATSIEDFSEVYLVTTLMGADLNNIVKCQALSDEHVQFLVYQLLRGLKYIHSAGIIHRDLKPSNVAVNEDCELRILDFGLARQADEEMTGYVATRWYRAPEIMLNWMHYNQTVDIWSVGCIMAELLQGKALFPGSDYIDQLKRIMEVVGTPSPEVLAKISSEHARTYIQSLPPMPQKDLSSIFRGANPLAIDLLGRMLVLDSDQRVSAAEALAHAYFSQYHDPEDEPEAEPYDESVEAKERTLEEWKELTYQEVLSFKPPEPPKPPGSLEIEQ
NEK2a, sequence (P51955 whole entry, species assumed): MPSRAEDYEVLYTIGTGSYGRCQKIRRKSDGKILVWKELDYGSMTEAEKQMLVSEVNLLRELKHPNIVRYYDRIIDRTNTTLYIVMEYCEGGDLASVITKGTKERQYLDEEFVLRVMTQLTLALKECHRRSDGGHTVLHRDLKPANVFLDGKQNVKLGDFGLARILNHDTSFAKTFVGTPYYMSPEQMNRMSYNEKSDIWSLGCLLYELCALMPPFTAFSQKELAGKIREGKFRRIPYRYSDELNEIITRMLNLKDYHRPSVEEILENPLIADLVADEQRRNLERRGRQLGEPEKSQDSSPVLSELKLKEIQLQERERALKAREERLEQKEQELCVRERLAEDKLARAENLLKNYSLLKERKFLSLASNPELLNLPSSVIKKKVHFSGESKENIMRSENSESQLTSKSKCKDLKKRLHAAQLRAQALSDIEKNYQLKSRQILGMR
ERK8, sequence (Q8TD08 whole entry, species assumed): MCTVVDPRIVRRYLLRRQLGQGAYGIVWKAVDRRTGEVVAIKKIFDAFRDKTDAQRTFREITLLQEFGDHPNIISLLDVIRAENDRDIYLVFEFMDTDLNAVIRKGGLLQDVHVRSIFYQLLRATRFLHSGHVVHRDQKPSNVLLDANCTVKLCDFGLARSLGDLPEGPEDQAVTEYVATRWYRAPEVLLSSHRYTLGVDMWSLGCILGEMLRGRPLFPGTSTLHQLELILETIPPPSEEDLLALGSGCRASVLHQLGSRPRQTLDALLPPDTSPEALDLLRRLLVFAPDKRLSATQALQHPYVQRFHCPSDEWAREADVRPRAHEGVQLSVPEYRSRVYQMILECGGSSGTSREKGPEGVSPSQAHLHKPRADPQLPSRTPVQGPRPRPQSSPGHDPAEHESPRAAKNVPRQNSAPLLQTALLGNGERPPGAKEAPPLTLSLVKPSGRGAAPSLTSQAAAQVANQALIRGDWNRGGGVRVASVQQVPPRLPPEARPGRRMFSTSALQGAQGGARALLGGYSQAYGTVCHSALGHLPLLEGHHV
MSK1, sequence (O75582 whole entry, species assumed): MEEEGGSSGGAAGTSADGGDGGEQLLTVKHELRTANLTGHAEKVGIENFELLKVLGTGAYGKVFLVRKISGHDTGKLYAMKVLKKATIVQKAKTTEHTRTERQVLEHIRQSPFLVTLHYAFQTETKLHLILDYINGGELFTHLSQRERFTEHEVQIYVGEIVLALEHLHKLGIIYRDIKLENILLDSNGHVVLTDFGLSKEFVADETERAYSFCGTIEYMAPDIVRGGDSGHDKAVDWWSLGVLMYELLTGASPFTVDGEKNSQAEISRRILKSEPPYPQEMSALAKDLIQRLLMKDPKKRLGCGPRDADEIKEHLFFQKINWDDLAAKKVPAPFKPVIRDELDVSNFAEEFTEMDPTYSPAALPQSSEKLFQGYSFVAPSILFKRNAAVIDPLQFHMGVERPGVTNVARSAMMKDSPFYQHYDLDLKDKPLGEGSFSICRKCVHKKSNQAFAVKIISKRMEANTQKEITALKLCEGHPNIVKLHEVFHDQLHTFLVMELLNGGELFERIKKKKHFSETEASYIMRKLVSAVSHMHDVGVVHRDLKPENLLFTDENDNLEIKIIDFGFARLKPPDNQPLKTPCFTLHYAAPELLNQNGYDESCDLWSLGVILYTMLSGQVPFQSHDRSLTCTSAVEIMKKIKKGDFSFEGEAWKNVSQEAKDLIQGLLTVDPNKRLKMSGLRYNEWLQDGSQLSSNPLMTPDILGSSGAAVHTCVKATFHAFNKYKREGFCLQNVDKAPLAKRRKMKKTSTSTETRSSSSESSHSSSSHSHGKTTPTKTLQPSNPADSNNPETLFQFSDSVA
MNK1, sequence (Q9BUB5 whole entry, species assumed): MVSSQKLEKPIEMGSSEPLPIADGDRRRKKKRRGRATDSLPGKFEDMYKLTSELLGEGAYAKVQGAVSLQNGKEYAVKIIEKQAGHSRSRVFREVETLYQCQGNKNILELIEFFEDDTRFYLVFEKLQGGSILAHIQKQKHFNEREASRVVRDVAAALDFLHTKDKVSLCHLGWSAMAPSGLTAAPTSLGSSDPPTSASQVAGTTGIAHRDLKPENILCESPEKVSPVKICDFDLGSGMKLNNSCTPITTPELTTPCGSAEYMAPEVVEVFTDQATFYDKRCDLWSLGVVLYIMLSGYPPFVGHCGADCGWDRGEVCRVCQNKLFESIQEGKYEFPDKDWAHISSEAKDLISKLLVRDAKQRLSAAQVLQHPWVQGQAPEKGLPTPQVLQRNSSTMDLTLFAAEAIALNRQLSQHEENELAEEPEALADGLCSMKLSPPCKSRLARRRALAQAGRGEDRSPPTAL
SGK, sequence (O00141 whole entry, species assumed): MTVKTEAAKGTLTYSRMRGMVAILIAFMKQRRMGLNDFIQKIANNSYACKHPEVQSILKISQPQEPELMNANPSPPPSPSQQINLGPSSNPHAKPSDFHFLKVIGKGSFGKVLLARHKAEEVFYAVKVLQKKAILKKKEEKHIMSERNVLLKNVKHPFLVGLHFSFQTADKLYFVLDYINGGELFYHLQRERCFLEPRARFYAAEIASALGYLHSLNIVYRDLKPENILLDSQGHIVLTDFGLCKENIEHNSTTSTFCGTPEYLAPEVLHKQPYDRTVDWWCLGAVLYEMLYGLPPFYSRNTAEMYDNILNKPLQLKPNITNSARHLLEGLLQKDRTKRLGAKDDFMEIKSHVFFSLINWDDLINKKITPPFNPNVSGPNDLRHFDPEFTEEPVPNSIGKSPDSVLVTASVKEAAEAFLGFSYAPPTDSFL
Aurora B, sequence (Q96GD4 whole entry): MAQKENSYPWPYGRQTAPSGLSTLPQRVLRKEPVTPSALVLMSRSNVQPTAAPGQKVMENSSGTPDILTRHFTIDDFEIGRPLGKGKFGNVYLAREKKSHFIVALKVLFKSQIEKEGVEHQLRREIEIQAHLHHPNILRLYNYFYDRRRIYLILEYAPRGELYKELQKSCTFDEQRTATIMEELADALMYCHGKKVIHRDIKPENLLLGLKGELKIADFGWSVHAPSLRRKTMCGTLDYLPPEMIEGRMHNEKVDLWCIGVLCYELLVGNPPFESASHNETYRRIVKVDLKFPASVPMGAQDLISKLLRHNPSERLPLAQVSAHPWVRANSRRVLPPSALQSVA
PRK2, sequence (Q16513 whole entry, species assumed): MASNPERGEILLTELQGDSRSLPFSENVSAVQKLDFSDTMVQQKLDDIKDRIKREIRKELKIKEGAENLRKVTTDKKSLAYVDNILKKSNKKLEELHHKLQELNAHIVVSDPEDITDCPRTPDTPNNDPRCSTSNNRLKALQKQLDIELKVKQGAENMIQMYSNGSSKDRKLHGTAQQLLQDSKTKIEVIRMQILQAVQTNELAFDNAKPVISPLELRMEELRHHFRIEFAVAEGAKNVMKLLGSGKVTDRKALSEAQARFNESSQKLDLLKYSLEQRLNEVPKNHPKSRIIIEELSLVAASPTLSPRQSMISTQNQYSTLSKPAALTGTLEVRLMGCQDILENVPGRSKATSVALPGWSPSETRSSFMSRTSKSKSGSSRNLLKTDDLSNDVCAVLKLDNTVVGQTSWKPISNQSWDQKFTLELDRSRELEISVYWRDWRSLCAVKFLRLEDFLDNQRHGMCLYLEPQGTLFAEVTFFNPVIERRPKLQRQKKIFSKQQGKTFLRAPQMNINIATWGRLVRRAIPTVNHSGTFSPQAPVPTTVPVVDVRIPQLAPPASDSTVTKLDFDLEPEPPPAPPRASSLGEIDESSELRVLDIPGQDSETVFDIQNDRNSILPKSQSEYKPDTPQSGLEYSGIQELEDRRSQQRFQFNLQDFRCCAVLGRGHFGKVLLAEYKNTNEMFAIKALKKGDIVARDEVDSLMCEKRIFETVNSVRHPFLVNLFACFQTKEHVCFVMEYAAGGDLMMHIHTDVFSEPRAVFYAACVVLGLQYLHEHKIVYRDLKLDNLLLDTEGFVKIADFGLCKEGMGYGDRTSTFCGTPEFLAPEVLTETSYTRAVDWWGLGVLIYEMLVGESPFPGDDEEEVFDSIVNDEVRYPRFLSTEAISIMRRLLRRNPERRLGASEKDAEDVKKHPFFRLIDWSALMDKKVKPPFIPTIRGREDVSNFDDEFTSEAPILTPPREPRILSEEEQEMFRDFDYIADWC
JNK/SAPK1c, sequence (P45983 whole entry): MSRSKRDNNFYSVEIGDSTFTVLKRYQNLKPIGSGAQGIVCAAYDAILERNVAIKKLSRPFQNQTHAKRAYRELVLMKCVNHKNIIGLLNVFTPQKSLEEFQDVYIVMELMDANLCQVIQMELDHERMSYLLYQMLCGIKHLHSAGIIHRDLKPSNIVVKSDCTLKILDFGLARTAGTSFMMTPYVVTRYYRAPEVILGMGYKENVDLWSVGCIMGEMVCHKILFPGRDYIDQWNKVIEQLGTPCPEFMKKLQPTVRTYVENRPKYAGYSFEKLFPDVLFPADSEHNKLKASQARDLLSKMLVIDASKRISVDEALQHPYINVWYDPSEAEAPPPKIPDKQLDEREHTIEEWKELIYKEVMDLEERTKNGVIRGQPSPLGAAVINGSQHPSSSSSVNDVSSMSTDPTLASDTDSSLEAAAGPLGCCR

Row | Compound | remaining activity at 5 µM (ERK8) | remaining activity at 5 µM (MAPKAP-K1a) | remaining activity at 5 µM (SRPK1) | remaining activity at 5 µM (SGK) | remaining activity at 5 µM (PKBb) | remaining activity at 5 µM (MAPKAP-K2) | remaining activity at 5 µM (JNK/SAPK1c) | Remaining activity (%) PHK (PHK) | remaining activity at 5 µM (NEK6) | remaining activity at 5 µM (MAPKAP-K3) | remaining activity at 5 µM (CDK2-cyclin A) | remaining activity at 5 µM (CAMK-1) | remaining activity at 5 µM (Lck) | remaining activity at 5 µM (SAPK3/p38g) | Remaining activity (%) CK2 (CK2) | remaining activity at 5 µM (MSK1) | remaining activity at 5 µM (p70 S6K) | remaining activity at 5 µM (GSK3b) | remaining activity at 5 µM (DYRK1a) | remaining activity at 5 µM (Aurora B) | other results
1 | CNc1nc(C)c(-c2ccnc(Nc3cccc(S(N)(=O)=O)c3)n2)s1 [Compound 19, 3-[4-(4-Methyl-2-methylamino-thiazol-5-yl)-pyrimidin-2-ylamino]-benzenesulfonamide] |  |  |  |  |  |  |  |  |  |  |  |  |  |  |  |  |  |  |  |  | IC50 [1]: 1.2 µM
2 | COCCNS(=O)(=O)c1cccc(Nc2nccc(-c3sc(N)nc3C)n2)c1 [Compound 55, 3-[4-(2-Amino-4-methyl-thiazol-5-yl)-pyrimidin-2-ylamino]-N-(2-methoxy-ethyl)-benzenesulfonamide] |  |  |  |  |  |  |  |  |  |  |  |  |  |  |  |  |  |  |  |  | melting point: 179 to 180 °C
3 | CCNc1nc(C)c(-c2ccnc(Nc3ccc(N4CCNCC4)cc3)n2)s1 [Compound 59, [4-(2-Ethylamino-4-methyl-thiazol-5-yl)-pyrimidin-2-yl]-(4-piperazin-1-yl-phenyl)-amine] | 4% | 14% | 88% | 0% | 75% | 84% | 2% | 3% | 47% | 87% | 1% | 30% | 1% | 69% | 2% | 45% | 13% | 37% | 4% | 4% | remaining activity at 5 µM (MNK1): 3%; remaining activity at 5 µM (PRK2): 8%; remaining activity at 5 µM (JNK3): 13%; remaining activity at 5 µM (SAPK2b/p38β2): 36%; remaining activity at 5 µM (NEK2a): 9%; remaining activity at 5 µM (PIM2): 80%; remaining activity at 5 µM (MNK2): 20%
4 | Cc1nc(CS(=O)(=O)c2cccs2)sc1-c1ccnc(Nc2ccc(N3CCOCC3)cc2)n1 [Compound 138, {4-[4-Methyl-2-(thiophene-2-sulfonylmethyl)-thiazol-5-yl]-pyrimidin-2-yl}-(4-morpholin-4-yl-phenyl)-amine] | 11% | 34% | 110% | 5% | 92% | 84% | 10% | 15% | 80% | 104% | 9% | 91% | 7% | 74% | 5% | 69% | 41% | 21% | 27% | 5% | remaining activity at 5 µM (MNK1): 18%; remaining activity at 5 µM (PRK2): 78%; remaining activity at 5 µM (JNK3): 15%; remaining activity at 5 µM (SAPK2b/p38β2): 42%; remaining activity at 5 µM (NEK2a): 6%; remaining activity at 5 µM (PIM2): 93%; remaining activity at 5 µM (MNK2): 27%
